Read-outs that look alike come from different tables or passages of the source.
Columns and labels:
[1] = Prediction of in vivo plasma clearance from microsomal stability data (well-stirred liver model) and prediction accuracy; format: in vitro ADME; conditions: rat; for Fold Error CL (ratio predicted/observed) / Fold Underprediction CL: predicted vs observed CLp; for CLp Predicted (SD), predicted plasma clearance: well-stirred liver model, corrected for microsomal and plasma protein binding
Procedure: (§1) Intrinsic clearance was calculated from in vitro t1/2 using the equation [38]:(2) CLint=ln2/in vitro t1/2 (min)×fmic×ml incubation/mg microsomal protein×mg microsomal protein/g liver weight×g liver/kg body weight where scaling factors of 60 mg of microsomal protein per gram of liver and 40 g of liver tissue per kilogram of body weight were applied.
In vivo clearance in plasma was predicted using the well-stirred liver model:(4) CLp=Q×fp×CLint/Q+fp×CLint where fp is the fraction unbound in plasma and Q is hepatic blood flow with a given value of 55 mL/min/kg for rat.
The individual prediction accuracy was assessed by calculation of fold error (ratio predicted/observed). AFE (Equation (5)) and RMSE (Equation (6)) were used as measures for overall bias and precision. Underprediction was also expressed as fold underprediction, which is the inverse of AFE. (5) AFE=10^1/n∑logpredicted/observed (6) RMSE=1/n∑(predicted−observed)^2 with n, number of predictions.

[2] = In vivo pharmacokinetics in rat plasma after i.v. administration; conditions: for clearance / Vd / half-life: iv, single i.v. dose approx. 0.4 nmol, mean plasma curves, triexponential fit; for clearance: read-out: CLp (plasma clearance, in vivo); for Vd: read-out: Vd (volume of distribution); for half-life: read-out: t1/2,term (terminal half-life); for Parent fraction (authentic radiotracer of total plasma radioactivity): rat plasma, 180 min p.i., radio-TLC
Procedure: Pharmacokinetic experiments on rats (n = 27) were conducted under isoflurane anesthesia (1.5–2% in oxygen) with continuous monitoring of physiological parameters. Polyethylene catheters (PE 50; filled with heparinized saline) were implanted into the femoral artery for arterial blood sampling and the lateral tail vein for radiotracer application. [^18F]CPFPX, [^18F]MCBX or [^18F]CBX (21 ± 2.5 MBq, 0.39 ± 0.20 nmol) was formulated in physiological saline (1 mL total volume) and administered over 1 min using a syringe pump (model 44, Harvard Apparatus, Holliston, MA, USA). Arterial blood samples (ca. 200 μL) were collected at regular time intervals throughout the 180-min experiment. The total blood sampling volume was kept below 10% of the circulating blood volume of the animal. Plasma was separated by centrifugation (3,000 rcf, 3 min, 21 °C), weighed and measured in a γ-counter (ISOMED 2100, MED Nuklear-Medizintechnik Dresden GmbH, Dresden, Germany) to calculate plasma radioactivity concentration. Fractions of unchanged radiotracer (parent fraction) and radiolabeled metabolites in plasma were assessed by radio-thin layer chromatography (TLC) analysis. Aliquots (45 μL) of plasma were mixed with 3 volumes of methanol/acetonitrile (50:50, v/v, 4 °C), vortexed (1 min, 21 °C) and centrifuged (20,000 rcf, 5 min, 21 C) to sediment precipitated protein. Aliquots (5 μL) of the supernatants were spotted on a TLC plate (SIL G-25, 10 × 20 cm, Macherey-Nagel, Düren, Germany). The TLC plate was developed with ethyl acetate/hexane, 75:25 (v/v), dried and subsequently imaged for 50 min with an electronic autoradiography system (InstantImager, Canberra-Packard, Rüsselsheim, Germany).
PK analysis was performed on decay and metabolite-corrected plasma radioactivity data of 8 ([^18F]CBX, [^18F]CPFPX) or 9 ([^18F]MCBX) individual animals. Data of 2 animals could not be used for PK analysis due to paravenous radiotracer injection. Since interindividual variations in plasma kinetics within the test groups were relatively small, individual plasma data were combined to mean data sets for analysis. Assuming a specific density of 1 g/mL for plasma, radioactivity concentration was calculated and plotted against time. For data visualization, plasma radioactivity concentration was normalized to body weight and amount of injected radioactivity, yielding SUV. PK parameters were derived from the radioactivity concentration-time data via nonlinear regression analysis applying a triexponential model:(7) Cp(t)=A1e^−λ1t+A2e^−λ2t+A3e^−λ3t where Cp is the plasma radioactivity concentration, t is time, A1, A2, and A3 represent the y-intercepts of the distribution/elimination phases of the plasma concentration-time curve and λ1, λ2, and λ3 represent the first-order rate constants of the phases.
Plasma clearance, volume of distribution and terminal half-life were calculated from the model parameters A and λ according to the following equations [44]:(8) CLp=D/∫0∞Cp(t)dt=D/∑i=1nAi/λi (9) Vd=Clp/λ3 (10) t1/2,term=ln 2/λ3 where D is the injected radioactivity and λ3 is the terminal rate constant.

Lipophilicity (log P) = format: physicochemical
Procedure: Table 1 Metabolic stability of the xanthine A1AR ligands in rat liver microsomes and predicted plasma clearance (CLp). Experiments were conducted in triplicate. fmic, unbound fraction in microsomes; CLint, intrinsic clearance; SD, standard deviation. | column: Log P

[3] = Microsomal stability assay (substrate depletion) in rat liver microsomes; format: in vitro ADME; conditions: male, Sprague Dawley; for half-life at 8 µM: pH 7.4, 8 µM substrate, 0.5 mg/mL protein, triplicate, read-out: In vitro t1/2 (SD); for CLint scaled at 8 µM: pH 7.4, scaled from in vitro t1/2 with fmic, 60 mg protein/g liver, 40 g liver/kg, read-out: CLint (SD), intrinsic clearance
Procedure: RLM (Sprague Dawley, male, 20 mg/mL protein concentration) were purchased from Thermo Fisher Scientific/Life Technologies (Darmstadt, Germany). Assay conditions (buffer, microsomal protein concentration, solvent) were evaluated and optimized in a preliminary study. RLM (0.5 mg/mL microsomal protein) and substrate (8 µM CBX, MCBX or CPFPX, 1 mM stock solutions in DMSO) were preincubated for 5 min at 37 °C in HEPES buffer (100 mM, pH 7.4) containing MgCl2 (3.3 mM). Reactions were initiated by addition of preheated NADPH (1.3 mM). Final incubation volume was 1 mL. Aliquots (100 µL) were withdrawn at 0, 2, 5, 10, 15 and 20 min and quenched with an equal volume of methanol/acetonitrile (50:50, v/v, cooled to −20 °C). The samples were mixed on a vortex mixer (1 min, 21 °C) and centrifuged (20,000 rcf, 10 min, 21 °C) to sediment precipitated protein. The supernatants (aliquots of 50 µL) were analyzed on a Knauer smartline HPLC-UV/VIS system (Knauer, Berlin, Germany) equipped with a manual sample injector (Rheodyne type 7125), a 500 µL sample loop and a Kromasil 100-5-C18 (4.6 × 250 mm) analytical column (AkzoNobel, Bohus, Sweden). Chromatography was performed using a mobile phase composition of ACN/H2O/HAc 48:52:0.2 (v/v/v), and with a flow rate of 1 mL/min and a detection wavelength of 275 nm. Experiments were conducted in triplicate.
Substrate depletion was calculated from the area ratios of the analyte peak, using the value at t = 0 min as 100%. Depletion data were fitted to the monoexponential decay model (Equation (1)) to derive in vitro t1/2. (1) C(t)=C0e^−ln2/t1/2t where C0 is the substrate concentration at time t = 0.
as §1

| Fold Error CL (ratio predicted/observed) [1] | Fold Underprediction CL [1] | clearance ([2]; rat) [mL/min/kg] | Vd ([2]; rat) [L/kg] | half-life ([2]; rat) [min] | Parent fraction (authentic radiotracer of total plasma radioactivity) [2] | Plasma level relative to [^18F]CPFPX ([2]; rat, second and third phase of the curve (10-180 min p.i.)) | half-life ([2]; 0.39 nmol, rat) [min] | logP (Lipophilicity (log P)) | half-life at 8 µM [3] [min] | CLint scaled at 8 µM [3] [mL/min/kg] | CLp Predicted (SD), predicted plasma clearance [1] | SMILES |
| --- | --- | --- | --- | --- | --- | --- | --- | --- | --- | --- | --- | --- |
| 0.84 | 1.2 | 3.22 | 0.356 | 76.5 | ~25% | approximately twice as high |  |  |  |  |  | CCCn1c(=O)c2[nH]c(C3CCC3)nc2n(CCC[18F])c1=O [[^18F]CBX, 8-cyclobutyl-3-(3-[^18F]fluoropropyl)-1-propylxanthine] |
| 0.85 | 1.2 | 9.1 | 0.715 | 54.5 | ~13% |  | ~50 |  |  |  |  | CCCn1c(=O)c2[nH]c(C3(C)CCC3)nc2n(CCC[18F])c1=O [[^18F]MCBX, 3-(3-[^18F]fluoropropyl)-8-(1-methylcyclobutyl)-1-propylxanthine] |
|  |  |  |  |  |  |  |  | 2.19 | 35.1 | 106 | 2.72 (0.13) mL/min/kg | CCCn1c(=O)c2[nH]c(C3CCC3)nc2n(CCCF)c1=O [CBX] |
|  |  |  |  |  |  |  |  | 2.82 | 19.8 | 204 | 7.76 (0.22) mL/min/kg | CCCn1c(=O)c2[nH]c(C3(C)CCC3)nc2n(CCCF)c1=O [MCBX] |
| 0.66 |  |  |  |  |  |  |  | 2.93 | 14 | 295 | 4.70 (0.07) mL/min/kg | CCCn1c(=O)c2nc(C3CCCC3)[nH]c2n(CCCF)c1=O [CPFPX, reference compound] |
| 0.66 | 1.5 | 7.1 | 0.523 | 51 | approximately 7% |  | ~50 |  |  |  |  | CCCn1c(=O)c2[nH]c(C3CCCC3)nc2n(CCC[18F])c1=O [[^18F]CPFPX, 8-cyclopentyl-3-(3-[^18F]fluoropropyl)-1-propylxanthine, reference compound] |

Reference: publication PMC6631687, “Relevance of In Vitro Metabolism Models to PET Radiotracer Development: Prediction of In Vivo Clearance in Rats from Microsomal Stability Data” (Pharmaceuticals, 2019)
